Test system: Pseudomonas putida KT2442
Description: In accordance with the method of Weusthuis et al. (2001) Biopolymers 3a: Polyesters I: Biological Systems and Biotechnological Production, Wiley-VCH, pp. 291-316, Pseudomonas putida KT2442 was cultured in 8 litres of medium in a 10-litre fed-batch fermentor at 30° C. […] The carbon source in the culture consisted of free fatty acids obtained from coconut oil (Vereenigde Oliefrabrieken, Rotterdam, the Netherlands) in a concentration of 0.4 vol./vol. % per litre of medium, yielding 131 g dry bacteria mass per litre of medium. This carbon source causes the organism to accumulate polyhydroxy alkanoate inclusion bodies. After fermentation, the batter was stored for a maximum of 3 months at 4-8° C.
250 ml of fermentation batter of Pseudomonas putida KT2442 was stirred for 1 hour using a magnetic agitator. […] After adjusting the pH, the mixture was stirred for 30 minutes using a magnetic agitator, whereafter it was homogenised with the aid of a homogeniser (Constant Cell Disruption Systems, Low March, Leerdam, the Netherlands) having a cell volume of 10 ml. The homogeniser was operated at a temperature of 10° C. and the mixture to be homogenised was cooled between homogenisation passages. The number of homogenisation passages was varied from 0 to 5 and the effect of the homogenisation pressure in 1 passage was assessed at 1.0, 1.3, 1.6 or 2.0 kbar. […]

N [ammonium hydroxide]
release of inclusion bodies into the supernatant without homogenisation (pH 11, zero passages (N), cells stored 9 weeks at 4-8° C.): releases a fraction of the inclusion bodies into the supernatant even at zero passages | fraction of free inclusion bodies released from the cells versus homogenisation pressure (pre-treatment at pH 11, 1 passage at 1.0, 1.3, 1.6 or 2.0 kbar, compared with untreated cells, FIG. 1): more inclusion bodies are released from the cells
